Test results published in US7888328B2, “Oral formulations of cladribine” (Ares Trading S.A., priority 2003, dated 2011).
Values after ≈ are worked out from the molar mass of the structure shown.

Key:
[1] = Phase solubility study of cladribine in HPβCD solutions; type: physicochemical; settings: aqueous hydroxypropyl-β-cyclodextrin (HPβCD) solution, aqueous with cosolvent or surfactant or cyclodextrin, thermodynamic from solid; with about 0.14 mole of HPβCD; complexation conditions of EXAMPLE 2; read-out: cladribine maintained dissolved (phase solubility)
Method: Generally, the complexation is conducted with heating, for example at about 45 to about 60° C. for a significant period of time, e.g., at least 6-9 hours; it is believed that even better results can be obtained by heating at up to about 80° C. for up to 24 hours. Excess precipitated cladribine is then removed and the cladribine concentration is subsequently measured. This concentration represents the amount of cladribine solubilized for a given amorphous cyclodextrin concentration. […] Consequently, the data points correspond to the amount of cladribine dissolved in aqueous HPβCD or other amorphous cyclodextrin under the selected conditions; when later lyophilized, the solution yields a complex cladribine-cyclodextrin complex which is an intimate amorphous admixture of (a) an amorphous inclusion complex of cladribine with an amorphous cyclodextrin and (b) amorphous free cladribine associated with amorphous cyclodextrin as a non-inclusion complex. If equilibrium conditions are reached during the complexation, the amorphous cladribine-cyclodextrin complex will be saturated with cladribine.
A phase solubility study can be carried out as follows. […] The excess, undissolved cladribine is removed by filtration. […] This process is repeated with different known concentrations of HPβCD until several data points are obtained. […]

[2] = Clinical study, relative bioavailability: plasma cladribine after oral formulations vs subcutaneous administration; type: in vivo, human (patients with MS); settings: human, sc, 3.0 mg subcutaneous, single dose, n = 12
Method: This study was a 2 center, open-label, randomized, 4-way crossover single dose study using twelve patients with MS. Patients received randomly three different fixed oral doses (3.0 mg) and a fixed subcutaneous dose of 3.0 mg. The four treatment days were separated by a drug-free interval of at least 5 days. In each treatment period, blood samples were collected over a 24-hour period for evaluation of plasma cladribine.
The plasma concentration of cladribine was measured by a HPLC/MS/MS method. […] The limit of quantification was 100 pg/ml. Analysis of samples was carried out in 16 runs.
576 clinical plasma samples were analyzed and concentration values of cladribine were determined.

[3] = Clinical study, dose response and absolute bioavailability: plasma cladribine after oral doses vs intravenous infusion; type: in vivo, human (patients with MS); settings: n = 26; for AUC(0-inf) / AUC(0-t) / Cmax / Tmax / half-life: human, plasma; for AUC(0-inf) / AUC(0-t) / Cmax: Geom Mean; for Tmax / half-life: Mean ± SD
Excerpt: The objective of this study was to assess the systemic availability of cladribine after oral administration in two different fixed oral doses, in comparison with one fixed intravenous administration (reference formulation) in patients with MS (multiple sclerosis), and to evaluate the safety and tolerability of cladribine in this population.
This study was a 3 center, open-label, randomized, 3-way crossover single dose study using twenty-six patients with MS. […] The three treatment days were separated by a drug-free interval of at least 5 days. In each treatment period blood samples were collected over a 24-hour period for evaluation of plasma cladribine.
The plasma concentrations of cladribine were measured by a HPLC/MS/MS method. […] The limit of quantification was 100 pg/ml. Analysis of samples was carried out in 16 runs. Except the first run (which had to be rejected because of equipment failure), all other runs could be accepted. No calibrator had to be excluded from fitting of the calibration curve and accuracy of each quality control sample met the GLP requirements.
858 clinical plasma samples were analyzed and concentration values of cladribine were determined. The results were compiled and are summarized in the tables below [TABLES VII through X]. In these tables, the following definitions are applicable: Tmax is the time to reach maximum concentration in the plasma; T1/2 is the half-life of cladribine in the plasma; Cmax is the maximum concentration of cladribine in the plasma; AUCinf is the area under the curve for the measured data from zero extrapolated to infinity; AUCt is the area under the curve for the measured data (from zero to the last time point); Geom Mean is the geometric mean; CV is the coefficient of variation (relative standard deviation); LL is the lower limit; UL is the upper limit; σ^2 is the mean variance; σB^2 is the mean variance between subjects; σW^2 is the mean variance within subjects; CVT is the total coefficient of variation; and CVW is the coefficient of variation within subjects.

[4] = Oral Administration 10.0 mg vs 3.0 mg IV, dose normalized
[5] = Oral Administration 30.0 mg vs 3.0 mg IV, dose normalized
[6] = Oral Administration 3.0 mg (Batch N0120 3.0 mg tablets)
[7] = Oral Administration 10.0 mg (Batch N0126 10.0 mg tablets)

Nc1nc(Cl)nc2c1ncn2[C@H]1C[C@H](O)[C@@H](CO)O1 [Cladribine, 2-chloro-2′-deoxyadenosine]
solubility [1]: ~49 mM (≈ 14 mg/mL) | AUC(0-inf) ([2]; Geom Mean): 57.3 ng·h/mL | AUC(0-t) ([2]; Geom Mean): 54.7 ng·h/mL | Cmax ([2]; Geom Mean): 23.2 ng/mL | Tmax ([2]; Mean ± SD): 0.313 ± 0.113 h | half-life ([2]; Mean ± SD): 6.69 ± 2.01 h | Ratio of Oral to I.V. AUCinf [3, 4]: 39.1 | Ratio of Oral to I.V. AUCt [3, 4]: 39.4 | Ratio of Oral to I.V. AUCinf [3, 5]: 34.5 | Ratio of Oral to I.V. AUCt [3, 5]: 34.0 | CVT (total coefficient of variation) of AUCinf ([3]; dose-adjusted PK parameter): 29.2% | CVT (total coefficient of variation) of AUCt ([3]; dose-adjusted PK parameter): 29.8% | CVT (total coefficient of variation) of Cmax ([3]; dose-adjusted PK parameter): 43.0% | CVW (coefficient of variation within subjects) of AUCinf ([3]; dose-adjusted PK parameter): 18.3% | CVW (coefficient of variation within subjects) of AUCt ([3]; dose-adjusted PK parameter): 19.1% | CVW (coefficient of variation within subjects) of Cmax ([3]; dose-adjusted PK parameter): 37.5% | AUC(0-inf) ([3]; 3.0 mg IV infusion (1 hour)): 58.5 ng·h/mL | AUC(0-t) ([3]; 3.0 mg IV infusion (1 hour)): 56.4 ng·h/mL | Cmax ([3]; 3.0 mg IV infusion (1 hour)): 21.4 ng/mL | Tmax ([3]; 3.0 mg IV infusion (1 hour)): 0.817 ± 0.397 h | half-life ([3]; 3.0 mg IV infusion (1 hour)): 6.5 ± 1.27 h | AUC(0-inf) [3, 6]: 20.2 ng·h/mL | AUC(0-t) [3, 6]: 19.2 ng·h/mL | Cmax [3, 6]: 5.61 ng/mL | Tmax [3, 6]: 0.548 ± 0.3 h | half-life [3, 6]: 5.85 ± 1.18 h | AUC(0-inf) [3, 7]: 76.7 ng·h/mL | AUC(0-t) [3, 7]: 74.5 ng·h/mL | Cmax [3, 7]: 21.2 ng/mL | Tmax [3, 7]: 0.558 ± 0.204 h | half-life [3, 7]: 5.6 ± 0.75 h | Ratio 10.0 mg/3.0 mg AUCinf ([3]; oral doses, dose normalized): 113.3 | Ratio 10.0 mg/3.0 mg AUCt ([3]; oral doses, dose normalized): 115.8 | Ratio 10.0 mg/3.0 mg Cmax ([3]; oral doses, dose normalized): 112.6
